Among the test systems are A549; ACHN; CAKI-1; HOP-62; KM12; LOX IMVI; Malme-3M; RXF 393; SF-295; SK-MEL-28; SK-MEL-5; SR; TK-10; U-251; HL-60; NCI-H226; DU-145; MDA-MB-231; NCI/ADR-RES; PC-3.
Holding throughout (assay): inhibition of tumour cell growth, NCI panel, 48 h

SMILES strings stand for the structures.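 The compound was tested at five concentrations on cells cultured in 96-well plates, with a 48-hour exposure period. At the GI50, growth is halved.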 Activity calls are given as the source filed them. Rule as the data show it: active = GI50 up to about 1.1 µM and inactive = higher. Where only a bound is given, the exact number is not on record here.

The text below walks through data of ChEMBL document CHEMBL1201862, “PubChem BioAssay data set” (2004).

Consider `O=C(O)CCC(NC(=O)c1ccccc1)C(=O)O` (stereo not given), for which the GI50 in the experiment on A549, in the experiment with ACHN, with CAKI-1, in the experiment on HOP-62, with KM12 and in the experiment on LOX IMVI was > 100 µM (inactive) throughout. In addition, the GI50 in the experiment with Malme-3M, with RXF 393, in the experiment with SF-295, in the experiment on SK-MEL-28, with SK-MEL-5 and with SR was > 100 µM (inactive) in each case. In addition, the GI50 with TK-10 and in the experiment with U-251 was > 100 µM (inactive) each time.
On to `COc1ccccc1/C=C1\CCC(CNc2ccc(Cl)cc2)C1=O` (stereo not given), for which the GI50 was 5.16 µM (inactive) in the experiment with A549; 0.59 µM (active) in the experiment on ACHN; 2.42 µM (inactive) in the experiment with CAKI-1; 2.18 µM (inactive) in the experiment on HL-60; 7.76 µM (inactive) with HOP-62; 1.1 µM (active) in the experiment with KM12. The GI50 with LOX IMVI was 0.254 µM (active); in the experiment on Malme-3M, 14.5 µM (inactive); with NCI-H226, 14 µM (inactive); with RXF 393 it was 16.3 µM (inactive); in the experiment on SF-295 it was 2.49 µM (inactive); in the experiment on SK-MEL-28, 13.2 µM (inactive). In addition, the GI50 was 3.16 µM (inactive) in the experiment on SK-MEL-5, 1.76 µM (inactive) in the experiment with SR, 5.18 µM (inactive) with TK-10 and 9.75 µM (inactive) with U-251.
For `N#Cc1c([N+](=O)[O-])cc(C(F)(F)F)cc1[N+](=O)[O-]`, the GI50 is 19.5 µM (inactive) with A549; 7.5 µM (inactive) in the experiment on ACHN; 4.57 µM (inactive) in the experiment on CAKI-1; 1.66 µM (inactive) with HL-60; 18.4 µM (inactive) in the experiment with HOP-62; 5.25 µM (inactive) in the experiment with KM12. The GI50 in the experiment with LOX IMVI was 2.64 µM (inactive); with Malme-3M, 8.2 µM (inactive); with NCI-H226 it was 21.6 µM (inactive); in the experiment on RXF 393, 2.44 µM (inactive); in the experiment on SF-295, 4.74 µM (inactive); in the experiment on SK-MEL-28 it was 8.73 µM (inactive). Also, the GI50 is 15.3 µM (inactive) in the experiment on SK-MEL-5, 2.16 µM (inactive) in the experiment on SR, 13.7 µM (inactive) in the experiment with TK-10 and 18.8 µM (inactive) in the experiment on U-251.
For the molecule `ON1CCc2c([nH]c3ccccc23)C1c1ccc(Cl)cc1` (stereo not given), the GI50 was 30 µM (inactive) in the experiment with A549; 31 µM (inactive) with ACHN; 25.9 µM (inactive) with HL-60; 76.4 µM (inactive) in the experiment on HOP-62; 27.5 µM (inactive) with KM12; 18.8 µM (inactive) in the experiment with LOX IMVI. Moreover, the GI50 was 29.4 µM (inactive) in the experiment on Malme-3M; 20.3 µM (inactive) in the experiment on NCI-H226; 22.1 µM (inactive) with RXF 393; 27.7 µM (inactive) with SF-295; 36.4 µM (inactive) in the experiment with SK-MEL-28; 20.3 µM (inactive) in the experiment on SR. Besides, the GI50 with TK-10 is 43.9 µM (inactive); in the experiment with U-251 it was 15.2 µM (inactive).
For the molecule `CCn1c2ccccc2n2c(=O)c3c(c(C#N)c12)CCCC3`, the GI50 in the experiment on A549, in the experiment with ACHN, in the experiment on CAKI-1, in the experiment with DU-145, with HL-60 and with KM12 was > 100 µM (inactive) in each case. Also, the GI50 with LOX IMVI, in the experiment on MDA-MB-231, with Malme-3M, in the experiment with NCI-H226, in the experiment with NCI/ADR-RES and with PC-3 was > 100 µM (inactive) throughout. For the same molecule, the GI50 in the experiment on SF-295, with SK-MEL-28, in the experiment with SK-MEL-5, in the experiment on TK-10 and in the experiment on U-251 was > 100 µM (inactive) in each case.
`O=C(NC(Cc1ccccc1)P(=O)(O)c1ccccc1)OCc1ccccc1` (stereo not given): the GI50 in the experiment on A549, with ACHN, in the experiment on CAKI-1, in the experiment on DU-145, in the experiment with HL-60 and with HOP-62 was > 100 µM (inactive) each time. Moreover, the GI50 with KM12, with LOX IMVI, in the experiment with Malme-3M, in the experiment on NCI-H226, with NCI/ADR-RES and in the experiment on PC-3 was > 100 µM (inactive) throughout. Further, the GI50 in the experiment with SF-295, with SK-MEL-28, with SK-MEL-5, in the experiment on SR, in the experiment with TK-10 and with U-251 was > 100 µM (inactive) throughout.
As for `O=c1c2ccc3cccc4c(=O)cc(c5ccccc15)-c2c34`, the GI50 with A549 was > 100 µM (inactive); in the experiment on ACHN, > 100 µM (inactive); with CAKI-1, > 100 µM (inactive); with HL-60, 43.9 µM (inactive); in the experiment with HOP-62 it was > 100 µM (inactive); in the experiment on KM12, > 100 µM (inactive). The GI50 in the experiment on LOX IMVI is 29.2 µM (inactive); in the experiment with Malme-3M it was 30.5 µM (inactive); in the experiment with NCI-H226, > 100 µM (inactive); in the experiment with RXF 393, > 100 µM (inactive); with SF-295 it was > 100 µM (inactive); in the experiment on SK-MEL-28, > 100 µM (inactive). Moreover, the GI50 in the experiment with SK-MEL-5 was 57.4 µM (inactive); in the experiment with SR it was > 100 µM (inactive); in the experiment with TK-10, > 100 µM (inactive); with U-251 it was 45.4 µM (inactive).
`COC(=O)C1C2CC3C(OC(=O)C31)C2OC(=O)[C@](OC)(c1ccccc1)C(F)(F)F` (stereo not given in full): the GI50 in the experiment on A549, in the experiment on ACHN, in the experiment with CAKI-1, with HL-60, with HOP-62 and with KM12 was > 100 µM (inactive) each time. The GI50 in the experiment on LOX IMVI, with Malme-3M, in the experiment on NCI-H226, with RXF 393, with SK-MEL-28 and with SK-MEL-5 was > 100 µM (inactive) each time. Further, the GI50 in the experiment with SR, with TK-10 and in the experiment on U-251 was > 100 µM (inactive) throughout.
As to `Cc1ccc(C)c(N2C/C(=N\NC(=O)CC#N)C(c3nc4ccccc4s3)C(=O)C2=O)c1` (stereo not given), the GI50 in the experiment with A549, with ACHN, in the experiment on CAKI-1, in the experiment with HL-60, in the experiment on HOP-62 and with KM12 was > 100 µM (inactive) in each case. For the same molecule, the GI50 in the experiment with Malme-3M, in the experiment with NCI-H226, in the experiment on RXF 393, with SF-295, in the experiment on SK-MEL-28 and in the experiment with SK-MEL-5 was > 100 µM (inactive) throughout. Besides, the GI50 with SR, in the experiment with TK-10 and in the experiment on U-251 was > 100 µM (inactive) in each case.
Regarding `CC/C(C)=C1\CCC(CN2CCOCC2)C1=O` (stereo not given), the GI50 is 21.2 µM (inactive) with A549; 7.18 µM (inactive) with ACHN; 2.47 µM (inactive) in the experiment with CAKI-1; 15.1 µM (inactive) in the experiment with HL-60; 23.1 µM (inactive) in the experiment with HOP-62; 24.3 µM (inactive) with KM12. The GI50 in the experiment on LOX IMVI is 16.4 µM (inactive); in the experiment on Malme-3M, 17.7 µM (inactive); in the experiment on NCI-H226, 82.2 µM (inactive); in the experiment on RXF 393 it was 6.78 µM (inactive); with SF-295 it was > 100 µM (inactive); in the experiment on SK-MEL-28, 17.4 µM (inactive). The values for the GI50 in the experiment on SK-MEL-5, with SR and in the experiment on TK-10 were 28.5 µM (inactive), 11.2 µM (inactive) and 14.5 µM (inactive), respectively.
Turning to `NC(=O)N/N=C/C(=C/Nc1ccccc1)[N+](=O)[O-]`, the GI50 with A549, in the experiment with ACHN, in the experiment with HL-60, with HOP-62, in the experiment on LOX IMVI and with RXF 393 was > 100 µM (inactive) each time. Besides, the GI50 with SF-295, in the experiment with SK-MEL-28, with SK-MEL-5, with SR, with TK-10 and in the experiment with U-251 was > 100 µM (inactive) in each case.
As for `CCN(CC)CCCN1CCc2c([nH]c3ccccc23)C1c1cccnc1` (stereo not given), the GI50 in the experiment on A549, in the experiment with ACHN, in the experiment with CAKI-1, with HL-60, with HOP-62 and in the experiment on KM12 was > 100 µM (inactive) in each case. Besides, the GI50 is > 100 µM (inactive) with LOX IMVI; 74.1 µM (inactive) in the experiment on Malme-3M; > 100 µM (inactive) in the experiment on NCI-H226; > 100 µM (inactive) with RXF 393; > 100 µM (inactive) in the experiment with SF-295; 38.4 µM (inactive) in the experiment on SK-MEL-28. For the same molecule, the GI50 is 59.8 µM (inactive) in the experiment on SK-MEL-5, > 100 µM (inactive) with SR, > 100 µM (inactive) in the experiment with TK-10 and > 100 µM (inactive) with U-251.
In the case of `O=c1c2c(-c3ccccc3)c3ccccc3nc2cnn1-c1ccccc1`, the GI50 in the experiment on A549 was > 100 µM (inactive); with ACHN it was > 100 µM (inactive); in the experiment with CAKI-1 it was > 100 µM (inactive); in the experiment with HL-60, 29.4 µM (inactive); in the experiment with HOP-62, > 100 µM (inactive); with KM12, 90.6 µM (inactive). Further, the GI50 in the experiment on LOX IMVI, with Malme-3M, in the experiment with NCI-H226, in the experiment with RXF 393, in the experiment with SF-295 and in the experiment on SK-MEL-28 was > 100 µM (inactive) in each case. The GI50 in the experiment on SK-MEL-5 was > 100 µM (inactive); with SR, 33.2 µM (inactive); in the experiment on TK-10, > 100 µM (inactive); with U-251, > 100 µM (inactive).
